Measured values: PMC11594916, “In Vitro Cell Model Investigation of Alpha-Synuclein Aggregate Morphology Using Spectroscopic Imaging” (International Journal of Molecular Sciences, 2024)

Biological target: T1, alpha-synuclein (αsyn) pre-formed fibrils (Homo sapiens, UniProt P37840)
T1 construct: gene SNCA; Full-length wildtype human αsyn, pre-formed amyloid fibrils (PFFs)
Test: fluorescence titration of h-FTAA with […] recombinant fibrils, simulated binding curve; lifetime imaging (FLIM)

Kd: < 100 nM
SMILES: O=C(O)Cc1cc(-c2ccc(-c3ccc(C(=O)O)s3)s2)sc1-c1ccc(-c2sc(-c3ccc(-c4ccc(C(=O)O)s4)s3)cc2CC(=O)O)s1 [h-FTAA]
